The first assay deals with LhgR binding to the lhgO promoter (F1). Put plainly: Electrophoretic mobility shift assays (EMSAs) to analyze the effectors of LhgR. Also on record: species or system Pseudomonas putida W619. Conditions: 50 mM compound, 60 nM purified LhgR, 10 nM F1 fragment, 30° C. From the text:
The above transcriptional regulator that specifically responds to L-2-hydroxyglutarate (L-2-HG) was obtained in the following way: • (1) analysis of the distribution of lhgO, the gene encoding a key enzyme for L-2-HG catabolism, in the genomes of different strains. A gene encoding a GntR family transcriptional regulator, lhgR, was found directly upstream of lhgO in the genome of Pseudomonas putida W619. lhgR gene was synthesized and cloned into pETDuet-1 vector, and the recombinant plasmid pETDuet-lhgR was introduced into an expression strain Escherichia coli BL21 (DE3), and then LhgR protein was obtained by induction of expression, isolation, and purification; • (2) electrophoretic mobility shift assays were performed to verify and determine the function of the above transcriptional regulator LhgR in Pseudomonas putida W619. Purified LhgR was incubated with different compounds (L-lysine, 5-aminovalerate, glutarate, D-2-HG, 2-ketoglutarate, and succinate), respectively, then the promoter fragment of lhgO was added. The effect on the binding ability of LhgR to the lhgO promoter fragment in the presence of different compounds was analyzed by electrophoretic separation, staining, and imaging.
Using the recombinant plasmid pETDuet-F2-lhgR-F1-lhgO as a template, the promoter region of lhgO (F1) was amplified by PCR using the synthetic primers. The F1 fragment and purified LhgR protein were diluted to 100 nM and 2000 nM using EMSA binding buffer, respectively. 18 μL of EMSA binding buffer containing 60 nM purified LhgR protein and 50 mM of different compounds was incubated for 15 min at 30° C., then 2 μL of F1 fragment at a final concentration of 10 nM was added and incubated for another 30 min at 30° C. 10 μL of the reaction mixture was electrophoresed on a 6% native polyacrylamide gels at 4° C. and 170 volts for approximately 45 minutes, followed by staining with SYBR green I and photographing.
The EMSA binding buffer formulation described in step (2) above was: 10 mM Tris-HCl, 50 mM KCl, 0.5 mM EDTA, 10% glycerol, and 1 mM dithiothreitol, adjusted to pH 7.4. The electrophoresis buffer formulation was: 89 mM Tris, 89 mM boric acid, 2 mM EDTA, adjusted to pH 8.3.
In general terms: Mobility shift assays separate free from complexed probe on a gel.
Take `O=C(O)CCC(=O)C(=O)O` [2-ketoglutarate]: the “effect on the binding of LhgR to the lhgO promoter fragment (EMSA)” value (“effect on the binding of LhgR” below) is recorded as “could not interfere with the binding of LhgR to DNA fragments”.

On to `NCCCCC(=O)O` [5-aminovalerate], for which the “effect on the binding of LhgR” value is “could not interfere with the binding of LhgR to DNA fragments”.

Turning to `O=C(O)CC[C@@H](O)C(=O)O` [D-2-HG], the “effect on the binding of LhgR” value was “could not interfere with the binding of LhgR to DNA fragments”.

As for `O=C(O)CC[C@H](O)C(=O)O` [L-2-HG, L-2-Hydroxyglutarate], the “effect on the binding of LhgR” value is recorded as “inhibited the binding of LhgR to the lhgO promoter fragment”.

As to `NCCCC[C@H](N)C(=O)O` [L-lysine], the “effect on the binding of LhgR” value is on record as “could not interfere with the binding of LhgR to DNA fragments”.

For the compound `O=C(O)CCC(=O)O` [succinate], the “effect on the binding of LhgR” value was “could not interfere with the binding of LhgR to DNA fragments”.

For a further assay, the system named is HEK293FT cells. Put plainly: Detection of intracellular L-2-HG concentration in human cells. The format is cell-based. Conditions: HEK293FT cells expressing the biosensor, permeabilized with 10 μM digitonin, L-2-HG added. On the procedure: The above application was performed by optimizing and synthesizing the nucleotide sequences of LHGFR0N3C and LHGFR0N7C with mammalian codons, adding the kozark sequence, 5′-GCCACC-3′, before the start codon, and ligating it to the pcDNA3.1^(+) plasmid, then the obtained recombinant plasmids pcDNA3.1-LHGFR0N3C and pcDNA3.1-LHGFR0N7C were transfected into HEK293FT cells, respectively. Cells were trypsinized 48 h following transfection, and resuspended in 1× Hank's balanced salt solution supplemented with 20 mM HEPES. Digitonin at a concentration of 10 μM was used to induce cell permeabilization and deplete intracellular L-2-HG for in vivo response curves construction.
The nucleotide sequences of LHGFR0N3C and LHGFR0N7C were optimized for mammalian codons and synthesized by General Biosystem Co., Ltd (Anhui). […] In a black flat-bottomed 96-well plate, 90 μL of the treated cell suspension was mixed with 10 μL of gradient concentration of L-2-HG and the fluorescence intensity was read in a SpectraMax i3 fluorescence plate reader (Molecular Devices, USA). […] The fluorescence intensity of HEK293FT cells not expressing the L-2-HG biosensor was subtracted at each emission wavelength and the dose-response curve in human cells was plotted as the ratio of the corrected fluorescence intensity at 528 nm to the fluorescence intensity at 485 nm.
With “LHGFR0N3C: L-2-HG biosensor: mTFP-LhgR-Venus fusion with C-terminal truncation of three amino acids of LhgR; SEQ ID NO. 3”, the “detection of intracellular L-2-HG (fluorescence emission ratio)” value is listed as “able to detect intracellular L-2-HG concentration in human cells”.

For “LHGFR0N7C: L-2-HG biosensor: mTFP-LhgR-Venus fusion with C-terminal truncation of seven amino acids of LhgR; SEQ ID NO. 4”, the “detection of intracellular L-2-HG (fluorescence emission ratio)” value was “able to detect intracellular L-2-HG concentration in human cells”.

The subject of the next assay is E. coli BL21(DE3). Kind of assay: Real-time detection of intracellular L-2-HG concentration in bacteria. It counts as cell-based, Escherichia coli. Conditions: carbon starvation-treated E. coli BL21(DE3) expressing the biosensor, L-2-HG added, 37° C., 5 min interval. On the procedure:
The above application was performed by introducing the L-2-HG biosensor-encoding plasmid pETDuet-LHGFR0N3C into an expression strain E. coli BL21 (DE3), shaking the culture and then adding IPTG overnight to induce LHGFR0N3C expression, carbon starvation treatment in inorganic salt medium without carbon source for 8 h to remove intracellular L-2-HG, mixing 90 μL of carbon starvation-treated bacterial solution with 10 μL of gradient concentration of L-2-HG solution, the fluorescence emission intensity of mTFP and Venus and its ratio were measured continuously at 5-minute intervals by a fluorescence microplate reader, and the fluorescence emission ratio increased in response to the addition of L-2-HG, and there was a positive correlation between the change level of fluorescence emission ratio and the concentration of L-2-HG, which can be used as an indicator to achieve real-time detection of dynamic changes in intracellular L-2-HG concentration of bacteria.
The E. coli BL21(DE3)-pETDuet-LHGFR0N3C strain constructed in Example 3 was inoculated in 50 mL of LB medium containing ampicillin resistance and incubated at 37° C. with 180 rpm to an OD600 nm of approximately 0.6. Then, 1 mM IPTG was added, and LHGFR0N3C expression was induced at 16° C. with 160 rpm overnight. […] The fluorescence intensity was detected continuously by using an EnSight microplate reader (PerkinElmer, USA). […]
“LHGFR0N3C: L-2-HG biosensor: mTFP-LhgR-Venus fusion with C-terminal truncation of three amino acids of LhgR; SEQ ID NO. 3”: the “detection of intracellular L-2-HG dynamics (fluorescence emission ratio)” value is “able to detect dynamic changes in intracellular L-2-HG concentration of bacteria in real time”.

For the origin of these results see patent US12429423B2, “L-2-hydroxyglutarate biosensor based on specific transcriptional regulator and application thereof” (SHANDONG UNIVERSITY, priority 2020, dated 2025).
